Laboratory results reported in patent publication US20220395575A1, “COMBINATION THERAPY WITH PROTEIN KINASE B ACTIVATION INHIBITOR TO TREAT CANCER” (H. LEE MOFFITT CANCER CENTER AND RESEARCH INSTITUTE, INC., priority 2019, published 2022).

Tests used:
Assay type in all cases: cell-based
Conditions in all cases: in combination with Akt activation inhibitor TCN-P
[1] = test system: THP1 human leukemic cells; assay: viability of THP1 human leukemic cells, combination with TCN-P
[2] = test system: HL60 human leukemic cells; assay: viability of HL60 human leukemic cells, combination with TCN-P
[3] = test system: U937 human leukemic cells; assay: viability of U937 human leukemic cells, combination with TCN-P

Measured: synergy with TCN-P to inhibit viability

C#Cc1cccc(Nc2ncnc3cc(OC)c(OCCCCCCC(=O)NO)cc23)c1 [CUDC-101]
synergizes with TCN-P: all assays above

Cc1cnc(NC(=O)Nc2cc(Br)c(C)cc2OC[C@@H]2CNCCO2)cn1 [LY2603618, rabusertib]
synergizes with TCN-P: all assays above
